Measured values from patent publication US20040024033A1 (priority 1998, published 2004).
Like-named read-outs stand apart in the source and are kept apart here.

Key:
[1] = test system: human HCT-15 colon carcinoma; format: in vivo, female BALB/c nude mice; conditions: 4 mg/kg, i.v. once on day 14
Description: (§1) Female or male BALB/c nu/nu (nude) mice are kept under sterile conditions (10 to 12 mice per Type III cage) with free access to food and water. Mice weigh between 20 and 25 grams at the time of tumor implantation. Tumors are established by subcutaneous injection of cells (minimum 2×10^6 cells in 100 μl PBS or medium) in carrier mice (4-8 mice per cell line). The resulting tumors are serially passaged for a minimum of three consecutive transplantations prior to start of treatment. Tumor fragments (approx. 25 mg) are implanted s.c. into the left flank of animals with a 13-gauge trocar needle while the mice are exposed to Forene (Abbott, Switzerland) anesthesia.
(§2) Tumor growth and body weights are monitored once or twice weekly. All treatments are administered intravenously (i.v.) and are initiated when a mean tumor volume of approximately 100 to 250 mm^3 is attained, depending upon the tumor type. Tumor volumes are determined using the formula […] (see Cancer Chemother. Pharmacol. 24:148-154, [1989]). Treatments with epothilone B vary the dose and the frequency of administration. Comparator agents are administered according to previously determined optimal treatment regimens. In addition to presenting changes in tumor volumes over the course of treatment, antitumor activity is expressed as T/C% (mean increase of tumor volumes of treated animals divided by the mean increase of tumor volumes of control animals multiplied by 100). Tumor regression (%) represents the smallest mean tumor volume compared to the mean tumor volume at the start of treatment, according to the formula Regression (%)=(1−Vend/Vstart)×100 (Vend=final mean tumor volume, Vstart=mean tumor volume at the start of treatment. Any animals in which the tumor has reached a size exceeding approximately 1.5 to 2.5 cm^3 are sacrificed. Details can be found below.
Tumor fragments of approximately 25 mg are implanted into the left flank of each female nude mouse (n=8 per group). Treatments are started on day 14 after tumor transplantation. Epothilone B is administered once at 4 mg/kg, i.v. on day 14.5-Fluorouracil is administered at 75 mg/kg, i.v., on days 14 and 21. TAXOL® is administered i.v. at 20 mg/kg/day, every second day for 5 treatments (days 14, 16, 18, 20 and 22). Antitumor activity is expressed as T/C% (mean increase of tumor volumes of treated animals divided by the mean increase of tumor volumes of control animals multiplied by 100). Tumor regression (%) represents the final mean tumor volume compares to the mean tumor volume at the start of treatment. Δ Tumor volumes represent the tumor volume on the last treatment day minus the tumor volume on the first treatment day. Statistical analyses on Δ tumor volumes uses Dunnett's test to compare treatment groups to controls. Statistical analyses on body weight changes uses paired t-tests comparing body weights before treatment to those at the end of treatment; mice weigh ˜20-25 g at the start of treatment. Not significant is indicated by the abbreviation ,ns”. Data presented are means±SEM from animals surviving to the end of the experiment.

[2] = test system: human KB-8511 epidermoid carcinoma; format: in vivo, female BALB/c nude mice
Description: as §1, §2
Tumor fragments of approximately 25 mg are implanted into the left flank of each female nude mouse (n=8 per group). Treatments are started on day 13 after tumor transplantation. epothilone B is administered once at 4 mg/kg, i.v. on day 13, or once per week at 4, 2 or 1 mg/kg, i.v., (on days 13, […] and 27). TAXOL® is administered i.v. at 20 mg/kg/day, every second day for 5 treatments (days 13, 15, 17, 19 and 21). Antitumor activity is expressed as T/C% (mean increase of tumor volumes of treated animals divided by the mean increase of tumor volumes of control animals multiplied by 100). Tumor regression (%) represents the final mean tumor volume compared to the mean tumor volume at the start of treatment. Changes (Δ) in Tumor volumes represent the tumor volume on the last treatment day minus the tumor volume on the first treatment day. Statistical analyses on Δ tumor volumes uses Dunnett's test to compare treatment groups to controls. […]

[3] = test system: human estrogen-dependent ZR-75-1 breast tumor; experiment: Antitumor effect against s.c. transplanted ZR-75-1 tumors; format: in vivo, female BALB/c nude mice
Description: as §1, §2
Tumor fragments of approximately 25 mg are implanted into the left flank of each female nude mouse (n=6 per group); a subcutaneous estrogen pellet is placed in the opposite flank. Treatments are started on day 19 after tumor transplantation. epothilone B is administered at 1, 2 or 4 mg/kg, i.v., either once per week (days 19, 26 and 33) or every second week (days 19 and 33). Data presented are from animals surviving to day 47, the last day of controls. Antitumor activity is expressed as T/C% (mean increase of tumor volumes of treated animals divided by the mean increase of tumor volumes of control animals multiplied by 100). Tumor regression (%) represents the final mean tumor volume compared to the mean tumor volume at the start of treatment. Changes (A) in tumor volume represent the tumor volume on the last treatment day minus the tumor volume on the first treatment day.

[4] = GLP toxicology study in dogs; format: in vivo; conditions: dog
Description: The starting dose level is 0.3 mg/m^2. This dose is calculated as one-third of the toxic dose low (TDL) in the most sensitive species studied which, for epothilone B, is the dog. […] Using a factor of 20 to convert mg/kg in the dog to mg/m^2 in humans, this starting dose is calculated as: […]

[5] = 1 mg/kg, i.v. every 7 days, day 47
[6] = 2 mg/kg, i.v. every 7 days, day 47
[7] = 4 mg/kg, i.v. every 7 days, day 47
[8] = 4 mg/kg, i.v. every 14 days, day 47

Structure (SMILES): C/C(=C\c1csc(C)n1)[C@@H]1C[C@@H]2O[C@]2(C)CCC[C@H](C)[C@H](O)[C@@H](C)C(=O)C(C)(C)[C@@H](O)CC(=O)O1 [epothilone B]
- % Body Weight Change [1]: 2 ± 2%
- Mortalities due to treatment [1]: No mortalities
- T/C [1]: Regres-
- D Body Weight ([1]; mean ± SEM): 0.4 ± 0.3 g
- mice with undetectable tumors at the end of the experiment ([2]; 2 mg/kg/week): 1/8
- % Body Weight Change ([2]; 4 mg/kg, i.v. once per week): −5±7%
- T/C ([2]; 4 mg/kg, i.v. once per week): Regres-
- mice with undetectable tumors at the end of the experiment ([2]; 4 mg/kg/week): 5/8
- Regression [3, 5]: none
- T/C (%) [3, 5]: 86%
- Δ Body Weight [3, 5]: 0.3 g
- Regression [3, 6]: none
- T/C (%) [3, 6]: 40%
- Δ Body Weight [3, 6]: -3.5 g
- T/C (%) [3, 7]: 1%
- Δ Body Weight [3, 7]: -1.2 g
- Regression ([3]; 4 mg/kg, i.v. every 7 days, transient): −8%
- Regression [3, 8]: none
- T/C (%) [3, 8]: 46%
- Δ Body Weight [3, 8]: -1.6 g
- toxic dose low (TDL) ([4]; most sensitive species, estimated): ~0.5 mg/kg
- Mortalities ([4]; 0.1 mg/kg, repeated once 3 weeks later (lower of the 2 doses)): no mortalities
